Measured values reported in patent US6864288B2, “Regulation of phospholipase D activity” (Brigham & Women's Hospital, Inc., priority 1999, dated 2005).

How the values were obtained:
[1] = system: cabbage phospholipase D (cPLD, EC 3.1.4.4); assay: Purified cabbage PLD activity (choline release from PC), enzyme kinetics with lipids; type: biochemical; conditions: for Ki: cPLD 3 u/reaction, 30° C., PC 0.5-5 mM, Ki from Slope = Km/Vm (1 + [I]/Ki); for Vm app: cPLD in presence of the lipid, enzyme alone Vm 0.29 (nmoles/sec); for inhibition of cPLD (in words): compared with PSDP
Procedure: Reactions were terminated at 30 sec intervals and choline release quantitated as in FIG. 2 legend. Values represent the mean for n≧4 for reactions in the absence of PSDP (●, r^2=0.963) and the mean for n≧3 with PSDP (Δ, r^2=0.995, 0.971 and 0.953 for 10, 100 and 1000 nM, respectively). CS Chem3D Pro software (CambridgeSoft Corp., Cambridge, Mass.) was used to calculate an energy minimized model of PSDP (inset).
(§1) PMN lysates (90-130 μg protein), purified phospholipase D (3-30 units) (EC 3.1.4.4., Sigma Chemical Co.) or recombinant hPLD1b were warmed (37° C. for mammalian enzyme and 30° C. for cabbage, 3 min) and exposed to PSDP, PSMP or FDP (10-1000 nM, 5 min, 37° C. or 30° C.) followed by PC (0.5 to 5 mM) in Tris-HCl (50 mM pH 7.5) with CaCl2 (30 mM). Reactions were terminated at 30 second intervals (0-90 seconds) with Tris-HCl (1 M) plus EDTA (50 mM). Choline release was quantitated as in ref 26.

[2] = system: PLD activity in human PMN; assay: LTB4-stimulated PLD activity in lysates of treated human PMN; type: cell-based
Procedure: (§2) Cell lysates (2-5×10^6 cells, 90-130 μg protein) were prepared from the same aliquots of PMN used to determine PSDP (see FIG. 1 & Methods), warmed to 37° C. and exposed to PC (2 mM in 50 mM Tris-HCl, pH 7.5, plus 30 mM CaCl2). Reactions were terminated at 30 sec intervals and choline release was quantitated (26). […] Superoxide anion generation by freshly isolated human PMN was determined (10 min, 37° C.) for LTB4 (100 nM), 15-epi-LXa (100 nM), and increasing concentrations of 15-epi-LXa (1-100 nM, 5 min, 37° C.) followed by LTB4 (100 nM, 10 min, 37° C.). Values reported in Panel C are the mean±S.E. for n=3 separate PMN donors. *P<0.05 by Student's t-test.
Peripheral venous blood (˜180 ml) was obtained by venipuncture from healthy volunteers who denied taking any medication for at least two weeks and had given written informed consent to a protocol approved by Brighamn and Women's Hospital's Human Research Committee. […]
(§3) PMN lysates (90-130 μg protein), purified phospholipase D (3-30 units) (EC 3.1.4.4., Sigma Chemical Co.) or recombinant hPLD1b were warmed (37° C. for mammalian enzyme and 30° C. for cabbage, 3 min) and exposed to PSDP, PSMP or FDP (10-1000 nM, 5 min, 37° C. or 30° C.) followed by PC (0.5 to 5 mM) in Tris-HCl (50 mM pH 7.5) with CaCl2 (30 mM). […] Choline release was quantitated as in ref 26.

human PMN = assay: LTB4-stimulated superoxide anion generation by human PMN (cytochrome c); type: cell-based; conditions: 15-epi-LXa 1-100 nM, 5 min, then LTB4 100 nM, 10 min, 37° C.
Procedure: as §2
Freshly isolated human PMN (1-3×10^6 PMN/ml HBSS+1.6 mM CaCl2) were incubated (5 min, 37° C.) in the presence of 15-epi-LXa (1-100 nM) or vehicle (0.1% ethanol), and then exposed (10 min) to LTB4 (100 nM) in the presence of cytochrome c (7 mg/ml). Superoxide anion generation was determined as in ref 22.

[32P]-PSDP in human PMN = PSDP remodeling in [32P]-labeled human PMN (TLC, phosphoimaging); type: cell-based
Procedure: Panel A: Scheme for aspirin-triggered 15-epi-LXA4 biosynthesis and structure of the stable analog, 15-epi-16-para-fluoro-phenoxy-LXA4-methyl ester (15-epi-LXa) (left), and hypothetical scheme for PIPP signaling (right). PMN were labeled with [γ-^32P]-ATP and incubated (12.5×10^6 ml^−1, 37° C.) with LTB4 (●, 100 nM), 15-epi-LXa (♦, 100 nM), vehicle (□, 0.1% ethanol) or 15-epi-LXa (100 nM, 5 min) followed by LTB4 (▴, 100 nM). Non-saponifiable lipids were extracted and separated by TLC, and [^32P]-incorporation was quantitated by phosphoimaging (see Methods). Values are densitometric measurements.
Peripheral venous blood (˜180 ml) was obtained by venipuncture from healthy volunteers who denied taking any medication for at least two weeks and had given written informed consent to a protocol approved by Brighamn and Women's Hospital's Human Research Committee. PMN were isolated from whole blood and steady state labeled with [γ-^32P]ATP (40 μCiml^−1, 90 min, 37° C.) as in (Levy, B. D., Petasis, N. A., and Serhan, C. N. (1997) Polyisoprenyl phosphates in intracellular signalling. Nature 389, 985-989). Labeled PMN were resuspended (20×10^6 ml^−1 PBS with 1 mM CaCl2, pH 7.40) and exposed to LTB4 (100 nM), 15-epi-LXa (100 nM) or vehicle (0.1% EtOH) for 0 to 300 seconds (37° C.). From each incubation, aliquots were removed at indicated intervals to determine the radiolabeling of nonsaponifiable lipids (10-12×10^6 PMN) and PLD activity (1-1.25×10^6 PMN). Materials present in each incubation were saponified, extracted and separated by TLC with phosphoimaging (model 425E and integration software; Molecular Dynamics), which was used for PSDP mass determination as in ref 22.

[3] = system: PLD activity in PMN lysates; assay: PLD activity in PMN lysates after LTB4, lipid added to the lysate; type: biochemical, human; conditions: 100 nM added to PMN lysates 60 sec after LTB4 100 nM
Procedure: Lysates were generated from cells at rest or after exposure to agonist using a lysis buffer comprised of 0.1 M Hepes (pH 7.4), 0.7 mM sodium orthovanadate, 10 μM p-nitrophenylphosphate, 10 mM EGTA, 5.5% triton X-100, 0.5 M β-glycerophosphate, 10 mM phenylmethylsulfonylfluoride, 0.1 mM ammonium molybdate, 12 mM DFP, 5 μgml^−1 leupeptin, 2 μgml^−1 aprotinin and 7 μgml^−1 pepstatin A (as in ref 25) and utilized for bioassay.
as §1
Because PLD activation occurs in vivo in the presence of many cofactors which modulate its activity, it was also determined the impact of PSDP on PLD activity in PMN lysates. Sixty seconds following LTB4, PSDP levels decreased (28%, FIG. 1) and PLD activity was maximal (FIG. 2).

[4] = target: T1, recombinant human PLD1b (rhPLD1b) (Homo sapiens, UniProt Q13393); assay: Recombinant human PLD1b activity (choline release from PC), enzyme kinetics with PSDP; type: biochemical
T1 construct: made in house; host or cells: Spodoptera frugiperda Sf9 cells, recombinant baculovirus (pACGHLT transfer vector)
T1 sequence (Q13393 1-1036 isoform Q13393-2): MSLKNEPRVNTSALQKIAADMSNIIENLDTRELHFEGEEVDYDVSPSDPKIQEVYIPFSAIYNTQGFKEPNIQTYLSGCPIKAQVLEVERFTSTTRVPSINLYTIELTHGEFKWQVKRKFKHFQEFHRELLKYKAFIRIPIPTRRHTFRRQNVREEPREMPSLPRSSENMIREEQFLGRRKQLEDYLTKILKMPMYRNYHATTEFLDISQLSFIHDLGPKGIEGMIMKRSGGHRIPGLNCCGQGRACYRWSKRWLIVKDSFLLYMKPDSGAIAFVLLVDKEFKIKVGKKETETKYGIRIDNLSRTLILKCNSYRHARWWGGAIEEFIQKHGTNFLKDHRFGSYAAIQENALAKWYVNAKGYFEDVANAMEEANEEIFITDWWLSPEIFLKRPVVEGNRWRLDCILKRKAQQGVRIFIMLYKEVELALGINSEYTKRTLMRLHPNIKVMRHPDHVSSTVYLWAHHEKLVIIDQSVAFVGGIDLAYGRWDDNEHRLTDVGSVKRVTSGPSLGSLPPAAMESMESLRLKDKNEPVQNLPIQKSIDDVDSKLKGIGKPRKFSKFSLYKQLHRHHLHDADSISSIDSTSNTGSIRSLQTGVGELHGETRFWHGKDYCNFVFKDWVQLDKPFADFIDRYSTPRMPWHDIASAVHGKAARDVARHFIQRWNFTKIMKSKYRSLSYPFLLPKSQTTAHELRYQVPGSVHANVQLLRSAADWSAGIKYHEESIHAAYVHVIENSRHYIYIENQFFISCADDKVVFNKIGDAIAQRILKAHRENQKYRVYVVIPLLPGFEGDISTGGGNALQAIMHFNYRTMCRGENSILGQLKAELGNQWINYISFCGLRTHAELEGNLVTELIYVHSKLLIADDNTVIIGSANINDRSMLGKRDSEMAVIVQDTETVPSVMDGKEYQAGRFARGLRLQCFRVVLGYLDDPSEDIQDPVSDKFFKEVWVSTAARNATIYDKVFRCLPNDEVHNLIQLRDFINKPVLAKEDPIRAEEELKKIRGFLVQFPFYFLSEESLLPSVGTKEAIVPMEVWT
Procedure: Spodoptera frugiperda (Sf9) cells were cultured in suspension at 2×10^5 to 2×10^6 cells/ml TC 100 medium supplemented with 10% fetal calf serum (Gibco). A cDNA encoding human PLD1b (cloned from placental tissue) was inserted into the transfer vector pACGHLT (Pharmingen) downstream of, and in frame with, vector sequences encoding glutathione-S-transferase (GST), hexahistidine, a protein kinase A phosphorylation site and a thrombin cleavage site. The GST-hPLD1b construct was cotransfected into Sf9 cells with linearized, polyhedrin-minus (PH-), AcMNPV DNA, Bac-N-Blue, according to the supplier's instructions (Invitrogen). Homologous recombination between linearized virus and the transfer vector restored the function of essential viral gene ORF1629 to yield infectious, recombinant virus. After two rounds of plaque-purification, recombinant virus was amplified by large scale infections of Sf9 cells until a titer of 8×10^7 pfu/ml was obtained. […]
as §3

[5] = effect on LTB4-stimulated changes in PSDP

CC(C)=CCC/C(C)=C/CC/C(C)=C/C1C(COP(=O)(O)O)C1(C)CC/C=C(\C)CCC=C(C)C (stereo in doubt) [Presqualene monophosphate, presqualene monophosphate]
loss in inhibitory potency compared to PSDP ([1]; cPLD): greater than 100 fold
Ki [1]: 3210 nM
Vm app [1]: 0.36

COC(=O)CCC[C@H](O)[C@H](O)/C=C/C=C/C=C\C=C\[C@H](O)COc1ccc(F)cc1 [15-epi-LXa, 15-epi-16-para-fluoro-phenoxy-LXA4-methyl ester]
inhibition of LTB4-stimulated PLD activity ([2]; 15-epi-LXa 100 nM, 5 min, then LTB4 100 nM, at 60 sec): ~81%
inhibition of LTB4-stimulated O2- generation (in words) (human PMN): potently inhibited
effect alone on rate of PIPP remodeling ([32P]-PSDP in human PMN; 100 nM, without LTB4): did not affect the rate of PIPP remodeling
increase in [32P]-PSDP ([32P]-PSDP in human PMN; 15-epi-LXa 100 nM, 5 min, then equimolar LTB4 100 nM, at 60 sec): ~72%
potency relative to 16-phenoxy-LXA4 and LXA4 ([32P]-PSDP in human PMN; [5]): 1-2 orders of magnitude
rank order of potency ([32P]-PSDP in human PMN; [5]): 15-epi-LXa>16-phenoxy-LXA4>LXA4

CC(C)=CCC/C(C)=C/CC/C(C)=C/CC/C=C(\C)CC/C=C(\C)CCC=C(C)C [Squalene]
Vm app [1]: 0.46
inhibition of cPLD (in words) [1]: Comparable inhibition was not evident

CCCCC/C=C\C[C@@H](O)/C=C/C=C/C=C\[C@@H](O)CCCC(=O)O [LTB4, leukotriene B4]
time of maximal increase in PLD activity ([2]; LTB4 100 nM): ≤ 60 s
decrease in [32P]-PSDP ([32P]-PSDP in human PMN; LTB4 100 nM, within 60 sec, 37° C.): 28%

phosphatidic acid
Vm app [1]: 0.43
inhibition of cPLD (in words) [1]: Comparable inhibition was not evident

COC(=O)CCC[C@H](O)[C@H](O)/C=C/C=C/C=C\C=C\[C@H](O)COc1ccccc1 [16-phenoxy-LXA4, 16-phenoxy-LXA4-methyl ester]
rank order of potency ([32P]-PSDP in human PMN; [5]): 15-epi-LXa>16-phenoxy-LXA4>LXA4

CC(C)=CCC/C(C)=C/CC/C(C)=C/C1C(COP(=O)(O)OP(=O)(O)O)C1(C)CC/C=C(\C)CCC=C(C)C (stereo in doubt) [Presqualene diphosphate, presqualene diphosphate]
mode of inhibition (Lineweaver-burk analyses) ([1]; PSDP 10 to 1000 nM): competitive inhibition model
Ki [1]: 20 nM
Vm app [1]: 0.25
inhibition of PLD activity [3]: 89.5+/−9.7%
Ki ([4]; rhPLD1b 0.3 u/reaction, 37° C.): 6 nM
Vm app ([4]; rhPLD1b in presence of the lipid, enzyme alone Vm 0.36 (nmoles/sec)): 0.03

CCCCC[C@H](O)/C=C/C=C\C=C\C=C\[C@@H](O)[C@@H](O)CCCC(=O)O [LXA4, lipoxin A4]
rank order of potency ([32P]-PSDP in human PMN; [5]): 15-epi-LXa>16-phenoxy-LXA4>LXA4
